Measurements taken from publication PMC9602792, “Preclinical evaluation of the epithelial sodium channel inhibitor AZD5634 and implications on human translation” (American Journal of Physiology - Lung Cellular and …, 2022).

Target: T1, ENaC (Homo sapiens, UniProt P37088+P51168+P51170)
T1 construct: host or cells: primary normal human bronchial epithelial cells, ALI culture
T1 sequence (P37088 1-669): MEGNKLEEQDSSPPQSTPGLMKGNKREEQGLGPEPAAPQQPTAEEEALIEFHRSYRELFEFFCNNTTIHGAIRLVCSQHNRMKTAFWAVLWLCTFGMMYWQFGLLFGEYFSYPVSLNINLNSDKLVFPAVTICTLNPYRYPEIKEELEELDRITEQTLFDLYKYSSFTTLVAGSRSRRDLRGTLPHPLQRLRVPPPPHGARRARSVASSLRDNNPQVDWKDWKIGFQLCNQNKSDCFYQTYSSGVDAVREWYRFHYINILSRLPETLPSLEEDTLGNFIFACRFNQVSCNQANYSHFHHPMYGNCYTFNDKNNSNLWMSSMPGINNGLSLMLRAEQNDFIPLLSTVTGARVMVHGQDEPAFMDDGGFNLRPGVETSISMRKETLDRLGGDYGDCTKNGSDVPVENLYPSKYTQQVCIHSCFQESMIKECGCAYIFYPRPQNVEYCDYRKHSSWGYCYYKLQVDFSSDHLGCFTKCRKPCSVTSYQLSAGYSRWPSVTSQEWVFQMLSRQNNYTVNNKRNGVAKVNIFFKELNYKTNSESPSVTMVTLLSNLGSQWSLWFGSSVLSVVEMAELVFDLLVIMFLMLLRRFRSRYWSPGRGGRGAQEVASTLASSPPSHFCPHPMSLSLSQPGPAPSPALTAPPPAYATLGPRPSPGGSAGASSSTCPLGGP
T1 sequence (P51168 1-640): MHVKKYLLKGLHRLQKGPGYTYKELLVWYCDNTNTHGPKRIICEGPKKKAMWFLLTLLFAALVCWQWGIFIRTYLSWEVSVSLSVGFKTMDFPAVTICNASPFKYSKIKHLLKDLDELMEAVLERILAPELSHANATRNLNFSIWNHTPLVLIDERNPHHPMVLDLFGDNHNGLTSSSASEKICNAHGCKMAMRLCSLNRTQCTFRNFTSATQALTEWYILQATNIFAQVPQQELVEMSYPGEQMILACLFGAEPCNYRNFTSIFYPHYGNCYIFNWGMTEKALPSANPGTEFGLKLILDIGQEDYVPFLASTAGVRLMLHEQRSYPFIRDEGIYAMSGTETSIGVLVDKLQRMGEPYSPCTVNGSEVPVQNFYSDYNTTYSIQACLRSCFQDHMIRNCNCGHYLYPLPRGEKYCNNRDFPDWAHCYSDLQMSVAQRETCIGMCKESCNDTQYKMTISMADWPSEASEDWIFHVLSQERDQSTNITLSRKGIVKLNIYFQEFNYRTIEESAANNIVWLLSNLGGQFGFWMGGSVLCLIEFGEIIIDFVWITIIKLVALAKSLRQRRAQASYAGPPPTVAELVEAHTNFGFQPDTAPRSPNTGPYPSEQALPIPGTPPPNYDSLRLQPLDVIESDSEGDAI
T1 sequence (P51170 1-649): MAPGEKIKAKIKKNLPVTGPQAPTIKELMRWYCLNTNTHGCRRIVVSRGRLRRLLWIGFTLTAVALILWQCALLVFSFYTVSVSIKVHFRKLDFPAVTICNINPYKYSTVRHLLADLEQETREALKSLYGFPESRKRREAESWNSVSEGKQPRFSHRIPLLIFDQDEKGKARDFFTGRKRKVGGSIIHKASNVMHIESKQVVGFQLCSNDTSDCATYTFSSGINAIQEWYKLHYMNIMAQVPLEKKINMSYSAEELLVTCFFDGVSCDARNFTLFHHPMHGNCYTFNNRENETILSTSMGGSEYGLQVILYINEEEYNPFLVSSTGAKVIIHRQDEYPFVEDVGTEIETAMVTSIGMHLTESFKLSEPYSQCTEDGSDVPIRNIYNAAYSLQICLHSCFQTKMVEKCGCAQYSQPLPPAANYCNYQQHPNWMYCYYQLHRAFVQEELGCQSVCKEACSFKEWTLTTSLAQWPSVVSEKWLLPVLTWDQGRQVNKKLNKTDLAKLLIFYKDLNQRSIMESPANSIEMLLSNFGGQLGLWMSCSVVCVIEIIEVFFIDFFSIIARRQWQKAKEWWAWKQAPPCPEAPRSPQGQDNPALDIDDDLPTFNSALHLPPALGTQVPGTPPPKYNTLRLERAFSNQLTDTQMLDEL
Test: Ussing chamber Isc in F508del-homozygous CF HBEC cultures
Type: cell-based
Description: Using previously described techniques ([2], [37]), epithelial cells were harvested from excised lung tissue derived from CF donors homozygous for F508del CFTR, expanded, and grown until confluency was attained. […] To stimulate fresh mucus secretion and formation of an even ASL layer, the cells were washed 48–72 h before experimentation with PneumaCult ALI media (80 µL), added apically, and then aspirated following 30–45 min incubation at 37°C. The washing process was repeated with a 15-min incubation period and the mucus layer was allowed to reestablish, after which the cells were treated with 1 µL of AZD5634 (1 µM, apical), alone and in combination with lumacaftor and ivacaftor (luma/iva; 3 µM/10 µM, basolateral). PBS (1% DMSO, apical) served as a vehicle control. […] Only passage 1 and 2 monolayers were used for these studies.
CFTR-dependent ion transport electrophysiology was measured in HBEC cultures by Isc using modified P2300 Ussing chambers (Physiologic Instruments, San Diego, CA) as previously described ([37], [38]). […] All chambers were maintained at 37°C and agonist stimulation was initiated within 15 min of placement in the chambers.
Descriptive statistics were calculated and means compared using unpaired or paired t tests, or ANOVA, with post hoc analyses conducted for multiple comparisons where appropriate. For analyses of functional anatomy of en bloc trachea, a mixed linear model was used that corrected for within-animal correlation. All tests were two-sided and were computed using GraphPad Prism (GraphPad Software, Inc., La Jolla, CA). P-values <0.05 were considered significant. Statistics are reported as means ± SE, unless indicated otherwise.

incremental Isc change (at 100 nM): −2.7 ± 1.5
cumulative ΔIsc (at the maximum concentration (10,000 nM)): −12.1 ± 3.5
Structure (SMILES): NC(=NCc1ccccc1)NC(=O)c1nc(Cl)c(N)nc1N [benzamil, reference compound]
